Laboratory results as given in US11440918B2, “p38α mitogen-activated protein kinase inhibitors” (priority 2020, dated 2022).
pIC50, pKd: −log10 of the molar value.

Assays:
p38β = p38β (Homo sapiens (Human), UniProt Q15759); experiment: Surface plasmon resonance (SPR) assay, Biacore T200
[1] = 10 μM
[2] = system: SARS-CoV-2 isolate BetaCoV/France/IDF0372/2020 (SARS-CoV-2 Paris); experiment: SARS-CoV-2 anti-viral assay Paris (viral genomes by RT-qPCR); type: cell-based; conditions: Severe acute respiratory syndrome coronavirus 2; SARS-CoV-2 Paris isolate, 48 hours
SARS-CoV-2 = experiment: microbe, parasite or virus in culture; type: cell-based; conditions: Severe acute respiratory syndrome coronavirus 2, read-out: IC50 for anti-SARS-CoVID-19 activity
[3] = system: SARS-CoV-2 isolate BetaCoV/France/IDF0372/2020 (SARS-CoV-2 Paris); experiment: Viral quantification via plaque assay in Paris; type: cell-based; conditions: Severe acute respiratory syndrome coronavirus 2
[4] = system: SARS-CoV-2, isolate USA-WA1/2020 (SARS-CoV-2 New York); experiment: SARS-CoV-2 anti-viral assay New York (N-protein staining); type: cell-based; conditions: Severe acute respiratory syndrome coronavirus 2; SARS-CoV-2 New York isolate, 48 hours; read-out: Anti-Viral NY IC50
[5] = 10 μM; remark: listed apart in the source
[6] = 10 μM; remark: listed apart in the source

Chain of p38β (Q15759 whole entry): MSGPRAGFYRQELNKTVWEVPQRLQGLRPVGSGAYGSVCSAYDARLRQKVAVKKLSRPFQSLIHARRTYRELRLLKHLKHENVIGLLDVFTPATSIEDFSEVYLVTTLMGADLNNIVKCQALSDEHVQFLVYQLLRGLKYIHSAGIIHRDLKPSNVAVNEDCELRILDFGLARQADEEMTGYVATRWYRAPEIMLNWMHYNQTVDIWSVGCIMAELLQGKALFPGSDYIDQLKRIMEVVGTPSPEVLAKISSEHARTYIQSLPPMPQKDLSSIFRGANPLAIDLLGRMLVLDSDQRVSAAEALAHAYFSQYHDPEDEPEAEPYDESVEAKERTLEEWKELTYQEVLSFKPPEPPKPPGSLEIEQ

Compound	pKd (p38β)	stable in rat plasma [1]	pIC50 [2]	pIC50 (SARS-CoV-2)	pIC50 [3]	pIC50 [4]	stable in human plasma [5]	stable in monkey plasma [6]
O=C(Nc1ccc(CN2CCCOCC2)cc1)c1ccc(Cl)cc1 [Compound 1, N-(4-((1,4-oxazepan-4-yl)methyl)phenyl)-4-chlorobenzamide]	> 8.00	at least 4 hours	6.22	> 5.00	5.74	6.15	at least 4 hours	at least 4 hours
O=C(Nc1ccc(CN2CC3(COC3)C2)cc1)c1ccc(Cl)cc1 [Compound 2, N-(4-((2-oxa-6-azaspiro[3.3]heptan-6-yl)methyl)phenyl)-4-chlorobenzamide]	–	–	5.11	> 5.00	–	5.92	–	–
O=C(Nc1ccc(CN2CCOCC2)cc1)c1cnc(Cl)nc1 [Compound 3, 2-chloro-N-(4-(morpholinomethyl)phenyl)pyrimidine-5-carboxamide]	–	–	5.03	> 5.00	–	5.92	–	–
O=C(Nc1ccc(CN2CC3(CCOCC3)C2)cc1)c1ccc(Cl)cc1 [Compound 4, N-(4-((7-oxa-2-azaspiro[3.5]nonan-2-yl)methyl)phenyl)-4-chlorobenzamide]	–	–	5.68	> 5.00	5.85	6.15	–	–
O=C(Nc1ccc(CN2CCC3(CCCO3)C2)cc1)c1ccc(Cl)cc1 (stereo not drawn) [Compound 6, N-(4-((1-oxa-7-azaspiro[4.4]nonan-7-yl)methyl)phenyl)-4-chlorobenzamide]	> 8.00	at least 4 hours	5.54	> 5.00	–	5.19	at least 4 hours	at least 4 hours
C[C@H]1CN(Cc2ccc(NC(=O)c3ccc(Cl)cc3)cc2)C[C@H](C)O1 [Compound 8, 4-chloro-N-(4-(((2S,6S)-2,6-dimethylmorpholino)methyl)phenyl)benzamide]	> 8.00	at least 4 hours	–	> 5.00	–	–	at least 4 hours	at least 4 hours
O=C(Nc1ccc(CN2C[C@@H]3COC[C@@H](C3)C2)cc1)c1ccc(Cl)cc1 [Compound 9, N-(4-(((1R,5S)-3-oxa-7-azabicyclo[3.3.1]nonan-7-yl)methyl)phenyl)-4-chlorobenzamide]	–	–	5.51	–	–	–	–	–
O=C(Nc1ccc(CN2C[C@H]3COC[C@H]3C2)cc1)c1ccc(Cl)cc1 [Compound 10, 4-chloro-N-(4-(((3aR,6aS)-tetrahydro-1H-furo[3,4-c]pyrrol-5(3H)—1)methyl)phenyl)benzamide]	–	at least 4 hours	5.89	–	5.55	6.70	at least 4 hours	at least 4 hours
O=C(Nc1ccc(CN2CCC(O)CC2)cc1)c1ccc(Cl)cc1 [Compound 11, 4-chloro-N-(4-((4-hydroxypiperidin-1-yl)methyl)phenyl)benzamide]	–	–	5.80	> 5.00	5.68	6.70	–	–
O=C(Nc1ccc(CN2CCC(O)C2)cc1)c1ccc(Cl)cc1 (stereo not drawn) [Compound 13, 4-chloro-N-(4-((3-hydroxypyrrolidin-1-yl)methyl)phenyl)benzamide]	–	–	5.47	> 5.00	–	–	–	–
CC(=O)N1CCN(Cc2ccc(NC(=O)c3ccc(Cl)cc3)cc2)CC1 [Compound 14, N-(4-((4-acetylpiperazin-1-yl)methyl)phenyl)-4-chlorobenzamide]	> 8.00	at least 4 hours	–	–	–	–	at least 4 hours	at least 4 hours
CN1CCN(Cc2ccc(NC(=O)c3ccc(Cl)cc3)cc2)CC1 [Compound 17, 4-chloro-N-(4-((4-methylpiperazin-1-yl)methyl)phenyl)benzamide]	–	–	5.44	> 5.00	5.57	6.15	–	–
